In ChEMBL document CHEMBL4840342, “The spectrum between substrates and inhibitors: Pinpointing the binding mode of dengue protease ligands with modulated basicity and hydrophobicity” (Bioorg Med Chem, 2021):
Residues, ends and D or L forms follow the SMILES beside them. *: point of attachment. NHBn = c1ccc(CN*)cc1; Bz = O=C(c1ccccc1)*; NHiPr = CC(C)N*

Columns and labels:
[1] = target: Genome polyprotein (dengue virus type 2) (UniProt P29990); assay: Inhibition of Dengue virus 2 NS2B-NS3 protease using Abz-Nle-Lys-Arg-Arg-Ser-Tyr(3-NO2)-NH2 as substrate at 50 uM preincubated with enzyme for 15 mins followed by substrate addition and measured for 15 mins by FRET assay relative to control; settings: time 30.0 min
Genome polyprotein = Genome polyprotein (dengue virus type 2, UniProt P29990); assay: Inhibition of Dengue virus 2 NS2B-NS3 protease using Abz-Nle-Lys-Arg-Arg-Ser-Tyr(3-NO2)-NH2 as substrate preincubated with enzyme for 15 mins followed by substrate addition and measured for 15 mins by FRET assay relative to control

| SMILES | inhibition [1] [%] | IC50 (Genome polyprotein) [µM] |
| --- | --- | --- |
| N=C(N)NCCC[C@H](NC(=O)c1ccccc1)C(=O)N[C@H](Cc1ccc(N)cc1)C(=O)NCc1ccc(OCc2ccccc2)cc1 | 29.1 | – |
| N=C(N)NCCC[C@H](NC(=O)c1ccccc1)C(=O)N[C@@H](CCCCN)C(=O)N[C@@H](C(=O)NCc1ccc(C(N)=O)cc1)c1ccc(OCc2ccccc2)cc1 | 103 | 0.4 |
| N=C(N)NCCC[C@H](NC(=O)c1ccccc1)C(=O)N[C@@H](CCCCN)C(=O)N[C@@H](C(=O)N[C@H](C(N)=O)C1CCCCC1)c1ccc(OCc2ccccc2)cc1 | 95.9 | 13.7 |
| CC(C)NC(=O)[C@H](CCCCN)NC(=O)[C@H](CCCNC(=N)N)NC(=O)c1ccccc1 (Bz-Arg-Lys-NHiPr) | 28.8 | – |
| N=C(N)NCCC[C@H](NC(=O)c1ccccc1)C(=O)N[C@@H](CCCCN)C(=O)NCc1ccc(OCc2ccccc2)cc1 | 63.3 | – |
| N=C(N)NCCC[C@H](NC(=O)c1ccccc1)C(=O)N[C@@H](CCCCN)C(=O)N[C@@H](C(=O)NCc1ccc(CN)cc1)c1ccc(OCc2ccccc2)cc1 | 99.7 | 0.3 |
| CC[C@@H](C)[C@H](NC(=O)[C@H](NC(=O)[C@H](CCCCN)NC(=O)[C@H](CCCNC(=N)N)NC(=O)c1ccccc1)c1ccc(OCc2ccccc2)cc1)C(N)=O | 58.1 | – |
| NCCCC[C@H](NC(=O)c1ccccc1)C(=O)N[C@H](C(=O)N[C@H](C(N)=O)C1CCCCC1)c1ccc(OCc2ccccc2)cc1 | 93.1 | 9.9 |
| NCCCC[C@H](NC(=O)c1ccccc1)C(=O)N[C@H](Cc1ccc(N)cc1)C(=O)NCc1ccc(OCc2ccccc2)cc1 | 94.5 | 35.8 |
| N=C(N)NCCC[C@H](NC(=O)c1ccccc1)C(=O)N[C@@H](Cc1ccc(N)cc1)C(=O)NCc1ccc(OCc2ccccc2)cc1 | 69.3 | – |
| N=C(N)NCCC[C@H](NC(=O)c1ccccc1)C(=O)N[C@@H](CCCCN)C(=O)Nc1ccc(OCc2ccccc2)cc1 | 59.8 | – |
| NCCCC[C@H](NC(=O)c1ccccc1)C(=O)N[C@@H](C(=O)N[C@H](C(N)=O)C1CCCCC1)c1ccc(OCc2ccccc2)cc1 | 99.6 | 9.4 |
| NCCCC[C@H](NC(=O)c1ccccc1)C(=O)N[C@@H](C(=O)N[C@@H](C(N)=O)C1CCCCC1)c1ccc(OCc2ccccc2)cc1 | 98 | 7.9 |
| N=C(N)Nc1ccc(C[C@H](NC(=O)[C@@H](NC(=O)c2ccccc2)c2ccc(OCc3ccccc3)cc2)C(=O)N[C@@H](C(N)=O)c2ccc(OCc3ccccc3)cc2)cc1 | 101 | 1.7 |
| NCCCC[C@H](NC(=O)[C@@H](NC(=O)c1ccccc1)c1ccc(OCc2ccccc2)cc1)C(=O)N[C@@H](C(N)=O)c1ccc(OCc2ccccc2)cc1 | 98.8 | 6.6 |
| NCCCC[C@H](NC(=O)c1ccccc1)C(=O)N[C@@H](Cc1ccc(N)cc1)C(=O)NCc1ccc(OCc2ccccc2)cc1 | < 20 | – |
| N=C(N)NCCC[C@H](NC(=O)c1ccccc1)C(=O)N[C@@H](CCCCN)C(=O)NCc1ccccc1 (Bz-Arg-Lys-NHBn) | 41.3 | – |
| N=C(N)NCCC[C@H](NC(=O)c1ccccc1)C(=O)N[C@@H](CCCCN)C(=O)NCCc1ccc(OCc2ccccc2)cc1 | 63.9 | – |
